This is an account of results in US9468610B2, “1-aminocyclohexane derivatives for the treatment of hearing loss” (MERZ PHARMA GmbH & CO. KGaA, priority 2007, dated 2016).

Assay [1] deals with subjects with diagnosed hearing loss. In words: Double blind placebo controlled pilot trial of neramexane for treatment of hearing loss (Example 1). The assay is classed as in vivo, human. Conditions: neramexane mesylate up to 75 mg/day, modified release tablets, 16 weeks, versus placebo. As to the method:
A hearing threshold level may be defined as the average of the pure tone hearing threshold levels at testing frequencies of 0.25, 0.5, 1, 2 and 4 kHz.
The primary objective of this study is to investigate the safety and efficacy of neramexane mesylate at daily doses of up to 75 mg in the treatment of hearing loss in comparison to placebo.
In order to be eligible to participate in the study, patients must meet the following criteria: • Male or female subjects aged between 18 and 80 years with diagnosed hearing loss of at least mild degree • Signed written informed consent • Female subjects must be at least 2 years post-menopausal or surgically sterile. Women of childbearing potential have to agree to use at least one effective method of contraception.
Visit 1 (screening): After signing the consent form, the subject undergoes a neurological and otological evaluation. […] Patient eligibility for study is evaluated via a check of inclusion/exclusion criteria.
Visit 2 (baseline): The subjects are asked about adverse events and changes in concomitant medication/disease, which events/changes are documented. Subject is evaluated for study eligibility based on a review of the inclusion/exclusion criteria. […]
Primary Outcome • Change from baseline in hearing threshold level of left/right ear (dB) calculated as average of the pure tone hearing level threshold levels at 0.25, 0.5, 1, 2 and 4 kHz. […]

The test system of assay [2] is patients suffering from persistent, subjective uni- or bilateral tinnitus. Description: Double-blind, multicenter, randomized, placebo-controlled, parallel-group study in tinnitus patients; pure tone audiogram (Example 2). The assay is classed as in vivo, human. Conditions: 50 mg-dose group (25 mg immediate release tablets twice daily), after 16 weeks treatment, compared to placebo; FIG. 1.
Method: Participants received either neramexane mesylate (e.g. 50 mg, as 25 mg immediate release tablets given twice daily) or placebo twice daily for 16 weeks. Neramexane mesylate was uptitrated in weekly steps of 12.5 or 25 mg during a 4-week uptitration period preceding the fixed-dose 12-week treatment period. Treatment was followed by a four week follow-up period.

For the compound `CC1(C)CC(C)(C)CC(C)(N)C1` [neramexane, 1-amino-1,3,3,5,5-pentamethylcyclohexane], the “Secondary outcomes: high frequency hearing threshold, individual frequencies, responders, patient-reported outcome, hearing impairment grade” value in assay [1] is reported as “improvement”. Further, the “Primary outcomes: change from baseline in hearing threshold level of left/right ear” value in assay [1] (average of pure tone thresholds at 0.25, 0.5, 1, 2 and 4 kHz) is “improvement”. For the same compound, the “Individual frequencies (hearing thresholds) on a pure tone audiogram (air conduction), secondary efficacy analysis” value in assay [2] is listed as “trend for a modest treatment effect compared to placebo”.
